Source: patent US9073927B2, “Inhibitors of PI3 kinase” (FUNDACION CENTRO NACIONAL DE INVESTIGACIONES ONCOLOGICAS …, priority 2010, dated 2015)
Where two headings read alike, the source gives them in different places.

Columns and labels:
PI3K (p110α/p85α) = target: T1, PI3K (p110α/p85α) (Homo sapiens, UniProt P42336); test: PI3K activity assay (ADP Hunter Plus); assay type: biochemical
T1 construct: purchased Carna Biosciences 07CBS-0402A
Description: The kinase activity was measured by using the commercial ADP Hunter™ Plus assay available from DiscoveRx (#33-016), which is a homogeneous assay to measure the accumulation of ADP, a universal product of kinase activity. The enzyme, PI3K (p110α/p85α was purchased from Carna Biosciences (#07CBS-0402A). The assay was done following the manufacturer recommendations with slight modifications: Mainly the kinase buffer was replace by 50 mM HEPES, pH 7.5, 3 mM MgCl2, 100 mM NaCl, 1 mM EGTA, 0.04% CHAPS, 2 mM TCEP and 0.01 mg/ml BGG. The PI3K was assayed in a titration experiment to determine the optimal protein concentration for the inhibition assay. To calculate the IC50 of the ETP-compounds, serial 1:5 dilutions of the compounds were added to the enzyme at a fixed concentration (2.5 μg/ml. The enzyme was preincubated with the inhibitor and 30 μM PIP2 substrate (P9763, Sigma) for 5 min and then ATP was added to a final 50 μM concentration. Reaction was carried out for 1 hour at 25° C. Reagent A and B were sequentially added to the wells and plates were incubated for 30 min at 37° C. Fluorescence counts were read in a Victor instrument (Perkin Elmer) with the recommended settings (544 and 580 nm as excitation and emission wavelengths, respectively). Values were normalized against the control activity included for each enzyme (i.e., 100% PI3 kinase activity, without compound). These values were plot against the inhibitor concentration and were fit to a sigmoid dose-response curve by using the Graphad software.

phospho-Ser-473-Akt = test: PI3K signalling: AKT phosphorylation inhibition, Western blot analysis; assay type: cell-based; settings: read-out: p-AKT (IC50, WB)
Description: AKT Phosphorylation Inhibition Western Blot Analysis
Subconfluent cells were incubated under different conditions and washed twice with TBS prior to lysis. Lysis buffer was added containing 50 mM Tris HCl, 150 mM NaCl, 1% NP-40, 2 mM Na3VO4, 100 mM NaF, 20 mM Na4P2O7 and protease inhibitor cocktail (Roche Molecular Biochemicals). The proteins were resolved on 10% SDS-PAGE and transferred to nitrocellulose membrane (Schleicher & Schuell, Dassel, Germany). The membranes were incubated overnight at 4° C. with antibodies specific for Akt, phospho-Ser-473-Akt (Cell Signaling Technology) and α-tubulin (Sigma), they were washed and then incubated with IRDye800 conjugated anti-mouse and Alexa Fluor 680 goat anti-rabbit IgG secondary antibodies. The bands were visualized using an Odyssey infrared imaging system (Li-Cor Biosciences). Compounds of the invention have a range of in vitro cell potency activities from about 1 nM to about 10 μM.
Compounds of the examples/invention were tested in the PI3K signalling cellular assay described hereinbefore (Western Blot Analysis), which measures AKT phosphorylation inhibition. Cellular activity of representative compounds, is represented in the table below: […]

SKVO3 cells = test: In vitro cell proliferation / combination assay (MTT), SKVO3; assay type: cell-based; settings: SKVO3, Ovarian, PIK3CA, p53
Description: Cells were seeded at 10000-50000 cells/well in 96 plates for 16 h. On day two, nine serial 1:3 compound dilutions were made in DMSO in a 96 well plate. The compounds were added to duplicate wells in 96-well cell plates a using a FX BECKMAN robot (Beckman Coulter) and incubated at 37° C. with CO2 atmosphere. After 3 days, relative numbers of viable cells were measured by MTT (Sigma) according to manufacturer's instruction and read on EndVision (Perkin Elmer). EC50 values were calculated using Activityl)ase from IDBS. Drugs in combination assays were dosed starting at 4×EC50 concentrations and continuing with serial dilutions 1:2. […]
An additional exemplary in vitro cell proliferation assay includes the following steps: • 1. […] Formazan salt formed was recorded and reported in graphs as relative growth vs. cells treated only with dmso.
The individual measured EC50 values against the particular cell of the exemplary compounds and of the chemotherapeutic agent are compared to the combination EC50 value. The combination Index (CI) score is calculated by the Chou and Talalay method (CalcuSyn software, Biosoft). […]
The individual measured EC50 values against the particular cell of the exemplary compounds and of the chemotherapeutic agents are compared to the combination EC50 value. The combination Index (CI) score is calculated by the Chou and Talalay method (CalcuSyn software, Biosoft). […]

A549 cells = test: In vitro cell proliferation / combination assay (MTT), A549; assay type: cell-based; settings: for EC50: Homo sapiens, A549, Lung, Ras G12S; for Synergy / Combination Index (Cl): A549; for Combination Index (Cl): Chou and Talalay
Description: Cells were seeded at 10000-50000 cells/well in 96 plates for 16 h. On day two, nine serial 1:3 compound dilutions were made in DMSO in a 96 well plate. The compounds were added to duplicate wells in 96-well cell plates a using a FX BECKMAN robot (Beckman Coulter) and incubated at 37° C. with CO2 atmosphere. After 3 days, relative numbers of viable cells were measured by MTT (Sigma) according to manufacturer's instruction and read on EndVision (Perkin Elmer). EC50 values were calculated using Activityl)ase from IDBS. Drugs in combination assays were dosed starting at 4×EC50 concentrations and continuing with serial dilutions 1:2. PI3K inhibitors and chemotherapeutic agents were added simultaneously.
An additional exemplary in vitro cell proliferation assay includes the following steps: • 1. An aliquot of 200 μl of cell culture containing optimal density (between 10^4-5×10^4 cells) (see Examples for cell lines and tumour type) in medium was deposited in each well of a 96-well flat bottom plates. • 2. Control wells were prepared containing medium without cells • 3. The compound was added to the experimental wells and incubated for 3 days. • 4. One quarter volume of MTT reagent with respect to the volume of cell culture medium present in each well was added and incubated 24 h at 37° C. with 5% CO2. • 5. One quarter volume of solubilisation buffer with respect to the volume of cell culture medium present in each well was added and incubated 24 h at 37° C. with 5% CO2. • 6. Formazan salt formed was recorded and reported in graphs as relative growth vs. cells treated only with dmso.
(§1) The individual measured EC50 values against the particular cell of the exemplary compounds and of the chemotherapeutic agent are compared to the combination EC50 value. The combination Index (CI) score is calculated by the Chou and Talalay method (CalcuSyn software, Biosoft). A CI less 0.8 indicates synergy. A CI between 0.8 and 1.2 indicates additivity. A CI greater than 1.2 indicates antagonism.
as §1, with “agents” for “agent”

[1] = therapeutic (comp. (B)) alone, read-out: Chemot. EC50
[2] = combination of 2-4 with Lapatinib
[3] = combination of 2-4 with PD-0325901
[4] = compound alone, read-out: Compound No. 2-4 (comp. (A)) EC50

T1 sequence (P42336 whole entry): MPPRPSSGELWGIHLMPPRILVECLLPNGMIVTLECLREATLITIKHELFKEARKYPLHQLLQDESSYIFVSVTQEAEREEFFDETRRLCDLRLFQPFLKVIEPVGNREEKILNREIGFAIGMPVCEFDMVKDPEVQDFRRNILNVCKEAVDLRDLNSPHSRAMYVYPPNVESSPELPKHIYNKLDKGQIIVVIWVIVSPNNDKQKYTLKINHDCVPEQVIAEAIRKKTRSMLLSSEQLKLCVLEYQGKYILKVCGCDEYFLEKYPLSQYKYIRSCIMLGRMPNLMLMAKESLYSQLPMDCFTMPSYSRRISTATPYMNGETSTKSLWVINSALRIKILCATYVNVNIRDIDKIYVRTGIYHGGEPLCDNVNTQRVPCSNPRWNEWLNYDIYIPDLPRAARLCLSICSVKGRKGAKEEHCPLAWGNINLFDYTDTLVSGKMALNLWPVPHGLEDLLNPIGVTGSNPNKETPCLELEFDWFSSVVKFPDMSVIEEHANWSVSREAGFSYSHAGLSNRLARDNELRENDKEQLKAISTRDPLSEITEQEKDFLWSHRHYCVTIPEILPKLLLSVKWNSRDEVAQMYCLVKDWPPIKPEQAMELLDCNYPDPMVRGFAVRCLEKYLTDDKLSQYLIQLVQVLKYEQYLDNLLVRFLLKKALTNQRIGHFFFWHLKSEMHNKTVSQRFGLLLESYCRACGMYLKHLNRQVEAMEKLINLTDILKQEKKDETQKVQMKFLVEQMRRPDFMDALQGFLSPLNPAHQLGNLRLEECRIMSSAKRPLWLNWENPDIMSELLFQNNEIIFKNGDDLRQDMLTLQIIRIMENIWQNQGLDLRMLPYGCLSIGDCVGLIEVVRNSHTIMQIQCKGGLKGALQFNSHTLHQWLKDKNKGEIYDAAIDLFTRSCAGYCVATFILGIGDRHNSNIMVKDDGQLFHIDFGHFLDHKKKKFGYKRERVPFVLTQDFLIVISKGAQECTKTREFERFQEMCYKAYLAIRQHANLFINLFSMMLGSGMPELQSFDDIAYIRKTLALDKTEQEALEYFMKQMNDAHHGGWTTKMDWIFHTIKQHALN
T1 sequence (P27986 whole entry partner): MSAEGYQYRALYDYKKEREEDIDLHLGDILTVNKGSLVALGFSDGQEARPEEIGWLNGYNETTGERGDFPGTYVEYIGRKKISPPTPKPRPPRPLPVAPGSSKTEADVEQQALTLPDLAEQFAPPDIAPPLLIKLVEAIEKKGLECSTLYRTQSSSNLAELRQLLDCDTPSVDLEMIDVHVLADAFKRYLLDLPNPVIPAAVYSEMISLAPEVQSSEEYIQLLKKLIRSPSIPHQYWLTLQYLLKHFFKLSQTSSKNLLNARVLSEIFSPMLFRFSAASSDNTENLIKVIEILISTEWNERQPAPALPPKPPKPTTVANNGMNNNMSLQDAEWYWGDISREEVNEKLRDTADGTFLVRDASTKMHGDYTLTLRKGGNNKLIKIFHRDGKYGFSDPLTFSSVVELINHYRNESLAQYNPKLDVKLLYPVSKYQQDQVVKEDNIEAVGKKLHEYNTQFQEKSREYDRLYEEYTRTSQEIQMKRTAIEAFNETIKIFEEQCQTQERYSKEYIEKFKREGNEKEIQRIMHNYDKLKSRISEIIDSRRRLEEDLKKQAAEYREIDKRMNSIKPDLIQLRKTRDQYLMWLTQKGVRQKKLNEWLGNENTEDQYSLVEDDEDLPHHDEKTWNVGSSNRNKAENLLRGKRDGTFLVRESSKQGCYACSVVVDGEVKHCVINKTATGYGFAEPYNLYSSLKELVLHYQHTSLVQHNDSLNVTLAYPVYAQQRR

CS(=O)(=O)N1CCN(Cc2cn3nc(-c4cnc(N)nc4)nc(N4CCOCC4)c3n2)CC1 [Compound 3-9]
IC50 (PI3K (p110α/p85α); Table 4, read-out: PI3Kα): 3 nM
IC50 (phospho-Ser-473-Akt): 5 nM

CS(=O)(=O)N1CCN(Cc2nc3c(N4CCOCC4)nc(-c4cccc5[nH]ncc45)cn3n2)CC1 [Compound 2-2]
IC50 (PI3K (p110α/p85α); Table 3, read-out: PI3Kα): 128 nM

COc1cccc(-c2cn3cncc3c(N3CCOCC3)n2)c1 [Compound 3-12, 6-(3-methoxy-phenyl)-8-morpholin-4-yl-imidazo[1,5-a]pyrazine]
IC50 (PI3K (p110α/p85α); Table 4, read-out: PI3Kα): 2000 nM

CC(=O)O[C@@]12CO[C@@H]1C[C@H](O)[C@@]1(C)C(=O)[C@H](O)C3=C(C)[C@@H](OC(=O)[C@H](O)[C@@H](NC(=O)OC(C)(C)C)c4ccccc4)C[C@](O)([C@@H](OC(=O)c4ccccc4)[C@H]21)C3(C)C [Taxotere, (2R,3S)—N-carboxy-3-phenylisoserine, N-tert-butyl ester, 13-ester with 5,20-epoxy-1,2,4,7,10,13-hexahydroxytax-11-en-9-one 4-acetate 2-benzoate, trihydrate, reference compound]
EC50 (SKVO3 cells; [1]): 2000 nM

CS(=O)(=O)N1CCN(Cc2cc3c(N4CCOCC4)nc(-c4cnc(N)nc4)cn3n2)CC1 [Compound 3-10, 5-[2-(4-methanesulfonyl-piperazin-1-ylmethyl)-4-morpholin-4-yl-pyrazolo[1,5-a]pyrazin-6-yl]-pyrimidin-2-ylamine]
IC50 (PI3K (p110α/p85α); Table 4, read-out: PI3Kα): 2 nM
IC50 (phospho-Ser-473-Akt): 14 nM

OCc1cc2c(N3CCOCC3)nc(-c3cccc(O)c3)cn2n1 [Compound 3-2]
IC50 (PI3K (p110α/p85α); Table 4, read-out: PI3Kα): 174 nM

Cc1nnc2c(N3CCOCC3)nc(-c3cnc(N)nc3)cn12 [Compound 3-5]
IC50 (PI3K (p110α/p85α); Table 4, read-out: PI3Kα): 165 nM

CS(=O)(=O)CCNCc1ccc(-c2ccc3ncnc(Nc4ccc(OCc5cccc(F)c5)c(Cl)c4)c3c2)o1 [Lapatinib, N-(3-chloro-4-(3-fluorobenzyloxy)phenyl)-6-(5-((2-(methylsulfonyl)ethylamino)-methyl)furan-2-yl)quinazolin-4-amine, reference compound]
EC50 (A549 cells; [1]): 1000 nM

Nc1ncc(-c2cn3nc(CN4CCOCC4)cc3c(N3CCOCC3)n2)cn1 [Compound 3-17, 5-(4-morpholin-4-yl-2-morpholin-4-ylmethyl-pyrazolo[1,5-a]pyrazin-6-yl)-pyrimidin-2-ylamine]
IC50 (PI3K (p110α/p85α); read-out: IC50 PI3Kα): 80 nM

CS(=O)(=O)N1CCCN(Cc2cc3c(N4CCOCC4)nc(-c4cnc(N)nc4)cn3n2)CC1 [Compound 3-16, 5-[2-(4-methanesulfonyl-[1,4]diazepan-1-ylmethyl)-4-morpholin-4-yl-pyrazolo[1,5-a]pyrazin-6-yl]-pyrimidin-2-ylamine]
IC50 (PI3K (p110α/p85α); read-out: IC50 PI3Kα): 13 nM

CS(=O)(=O)N1CCC(NCc2cc3c(N4CCOCC4)nc(-c4cnc(N)nc4)cn3n2)CC1 [Compound 3-13, 5-{2-[(1-methanesulfonyl-piperidin-4-ylamino)-methyl]-4-morpholin-4-yl-pyrazolo[1,5-a]pyrazin-6-yl}-pyrimidin-2-ylamine]
IC50 (PI3K (p110α/p85α); read-out: IC50 PI3Kα): 58 nM

Oc1cccc(-c2cn3cncc3c(N3CCOCC3)n2)c1 [Compound 3-11]
IC50 (PI3K (p110α/p85α); Table 4, read-out: PI3Kα): 317 nM

COCCN(C)Cc1cc2c(N3CCOCC3)nc(-c3cnc(N)nc3)cn2n1 [Compound 3-14, 5-(2-{[(2-methoxy-ethyl)-methyl-amino]-methyl}-4-morpholin-4-yl-pyrazolo[1,5-a]pyrazin-6-yl)-pyrimidin-2-ylamine]
IC50 (PI3K (p110α/p85α); read-out: IC50 PI3Kα): 106 nM

CS(=O)(=O)N1CCN(Cc2nc3c(N4CCOCC4)nc(-c4cnc(N)nc4)cn3n2)CC1 [Compound 2-3]
IC50 (PI3K (p110α/p85α); Table 3, read-out: PI3Kα): 3 nM
IC50 (phospho-Ser-473-Akt): 12 nM

CC(C)S(=O)(=O)N1CCN(Cc2cc3c(N4CCOCC4)nc(-c4cnc(N)nc4)cn3n2)CC1 [Compound 3-18, 5-{4-morpholin-4-yl-2-[4-(propane-2-sulfonyl)-piperazin-1-ylmethyl]-pyrazolo[1,5-a]pyrazin-6-yl}-pyrimidin-2-ylamine]
IC50 (PI3K (p110α/p85α); read-out: IC50 PI3Kα): 6 nM

Cc1nnc2c(N3CCOCC3)nc(-c3cccc(O)c3)cn12 [Compound 3-6]
IC50 (PI3K (p110α/p85α); Table 4, read-out: PI3Kα): 952 nM

O=C(NOC[C@H](O)CO)c1ccc(F)c(F)c1Nc1ccc(I)cc1F [PD-0325901, (R)—N-(2,3-dihydroxypropoxy)-3,4-difluoro-2-(2-fluoro-4-iodophenylamino)benz-amide, reference compound]
EC50 (A549 cells; [1]): 1000 nM

CS(=O)(=O)N1CCN(Cc2nc3c(N4CCOCC4)nc(-c4cnc(N)nc4)c(Cl)n3n2)CC1 [Compound 2-4]
Synergy (A549 cells; [2]): − (a combination index greater than 1.2)
Combination Index (Cl) (A549 cells; [2]): 2.44
Synergy (A549 cells; [3]): +++ (a combination index greater than 0.1 but lower than 0.3)
Combination Index (Cl) (A549 cells; [3]): 0.27
EC50 (A549 cells; [4]): 1000 nM
IC50 (PI3K (p110α/p85α); Table 3, read-out: PI3Kα): 1.4 nM
IC50 (phospho-Ser-473-Akt): 64 nM
EC50 (SKVO3 cells; [4]): 1000 nM
